Source: article PMC4161306, “Regulation of Arabidopsis Flowering by the Histone Mark Readers MRG1/2 via Interaction with CONSTANS to Modulate FT Expression” (PLoS Genetics, 2014)

What was measured:
[1] = tested on: chromodomain of MRG1 (His-MRG1N); assay: Dot-blot / pull-down binding assay, His-MRG1N with methylated H3 peptides; parameters: species or system Arabidopsis; conditions: Figure 1A, N-terminal His-tagged chromodomain, peptides residues 1–21 (K4, K9) or 21–44 (K27, K36)
Protocol: (§1) For the dot-blot binding assay, MRG1N (1–321, AT4G37280) and MRG2N (1–369, AT1G02740) cDNA were amplified by primers MRG1-1/MRG1-2 and MRG2-1/MRG2-2, respectively, and cloned into a pET-30a vector (Novagen, www.novagen.com). Site mutation was generated using a Takara MutanBEST Kit (http://www.takara-bio.com) with primers MRG2-3/MRG2-4. The in vitro binding assay of the chromodomain containing proteins with the histone peptides were performed as described previously. Methylated H3K4 (H3K4me1/2/3, residues 1–21), H3K9 (H3K9me1/2/3, residues 1–21), H3K27 (H3K27me1/2/3, residues 21–44), and H3K36 (H3K36me1/2/3, residues 21–44) peptides were synthesized by Scilight Biotechnology (http://www.scilight-peptide.com). Anti-monomethyl-H3K4 (07-436), anti-dimethyl-H3K4 (07-030), anti-trimethyl-H3K4 (07-473), anti-trimethyl-H3K9 (07-442), and anti-trimethyl-H3K27 (07-449) were purchased from Millipore (http://www.millipore.com), and anti-monomethyl-H3K36 (ab9048), anti-dimethyl-H3K36 (ab9049), and anti-trimethyl-H3K36 (ab9050) were purchased from Abcam (http://www.abcam.com).

[2] = tested on: chromodomain of MRG2 (His-MRG2N); assay: Dot-blot / pull-down binding assay, His-MRG2N with methylated H3 peptides; parameters: species or system Arabidopsis; conditions: Figure 1A, N-terminal His-tagged chromodomain, peptides residues 1–21 (K4, K9) or 21–44 (K27, K36)
Protocol: as §1

[3] = tested on: EAF3; conditions: ref [29]; cited from earlier work
Text: Firstly, via their chromodomain, MRG1/2 proteins act as readers that recognize methylated H3K4 and H3K36.

[4] = tested on: Y87A substitution in MRG2 chromodomain (His-MRG2N(Y87A)); assay: Dot-blot binding assay, His-MRG2N(Y87A) with methylated H3 peptides; parameters: species or system Arabidopsis; conditions: Figure 7B; Tyr87Ala mutation in MRG2
Protocol: as §1

[5] = In vitro peptide pull-down from nuclear extracts with mass spectrometry; assay type: binding, Arabidopsis; conditions: biotinylated H3 peptides (amino acids 21 to 44) on streptavidin-coated beads
Protocol: An in vitro peptide pull-down assay was used to identify the proteins that bind to histone H3 tail methylated at K36. Biotinylated histone H3 peptides (amino acids 21 to 44), with either unmethylated (control) or tri-methylated K36, were immobilized on the streptavidin-coated beads and incubated with Arabidopsis nuclear extracts. […] Members in this group have the same domain organization, with a chromodomain (chromatin organization modifier domain) near the N-terminus, and a MRG domain near the C-terminus (Figure S1). MRG2 has a homolog in Arabidopsis, MRG1, which shares with MRG2 49% identity and 65% similarity at the amino acid sequence level.

Substance	binding to chromodomain of MRG1 [1]	binding to chromodomain of MRG2 [2]	binding to EAF3 [3]	association with MRG2 Y87A [4]	protein bound from nuclear extract [5]
H3K4me3: methylated H3K4 peptide, residues 1–21 (dot-blot), Scilight Biotechnology	could bind	could bind	only very weakly	disrupted its association	
H3K36me2: methylated H3K36 peptide, residues 21–44 (dot-blot)	could bind	could bind			
mono-methylated H3K4: methylated H3K4 peptide, residues 1–21 (dot-blot)	not				
H3K4me2: methylated H3K4 peptide, residues 1–21 (dot-blot)	could bind	could bind			
mono-methylated H3K36: methylated H3K36 peptide, residues 21–44 (dot-blot)	not				
H3 peptides tri-methylated at K36: Biotinylated histone H3 peptides (amino acids 21 to 44) with tri-methylated K36					identified MRG2
H3K36me3: methylated H3K36 peptide, residues 21–44 (dot-blot)	could bind	could bind	bind	disrupted its association	
